We go through 4 molecules from patent US5260050A, “Methods and compositions for magnetic resonance imaging comprising superparamagnetic ferromagnetically coupled chromium complexes” (priority 1990, dated 1993).

For data set [1] the following is noted: typically 15 MHz; cited from earlier work.
For data set [2] the following is noted: cited from earlier work.
Data set [3] has as its system BRO-strain human malignant melanomas. Briefly: MR imaging of human melanoma xenografts in nude mice. The data set is classed as in vivo, human; Swiss nude mice. Particulars: i.v. The protocol: The strong paramagnetic metal ion, gadolinium (Gd^+3), was chelated stoichiometrically to DTPA-Dextran 70 polymer, whose preparation is described in Example 1, paragraph 2 (improved formulation). Swiss nude mice were inoculated with BRO-strain human malignant melanomas, and these were allowed to grow to a 1-1.5 cm diameter. Moderately T1-weighted MR imaging (TR=500 msec, TE=40 msec) was performed in a standard Diasonics™ medical imager and a 30-cm RF head coil, before and after intravenous injection of equivalent doses of Gd-DTPA-Dextran-70 (0.03 mmol Gd/kg) or Gd-DTPA (0.1 mmol/kg) contrast agent. […] It will also be recognized that much lower doses of the stronger superparamagnetics (including doses below about 0.01 mmol/kg, versus 0.1 mmol/kg for Gd-DTPA) can be used to obtain effective MRI contrast enhancement; and that much faster, more heavily T1-weighted pulse sequences can be implemented in the presence of superparamagnetic-polymer conjugates or paired-ion complexes.
(In general: Xenograft models place foreign cells or tissue in a host animal.)

The conditions of data set [4]: in vivo; cited from earlier work.
The test system of another data set is tumor. The settings on record: in vivo; cited from earlier work.
The subject of a further data set is VX2 carcinoma cells. Briefly: Histochemical platinum staining of perfused VX2 tumors. The settings on record: intraarterial perfusion. The data set is classed as in vivo, rabbit. As to the method: At 5 to 15 minutes postinjection, the animals were sacrificed, their lungs removed and fixed with intratracheal buffered formalin, tissue sections cut at 8 microns thickness, and the sections stained using a newly devised method for platinum which comprises a microwave-augmented iron-type stain (60° C.×2 minute×3 cycles) using a 1:1 mixture of 2% ferriferocyanide reagent and 4% HCl. […] To those skilled in the art, additional evidence for selective lung localization, was obtained by injecting intravenously, analogous (subembolizing) heparin-coated nanoparticles containing encapsulated amphotericin B, into identical mice, homogenizing the lungs, and documenting an 8-fold increment in drug levels over native amphotericin B (deoxycholate formulation, Fungizone; Squibb) recovered at 1 to 3 hours postinjection.
Additional documentation for maintenance of the cisplatin-carrier paired-ion complex in vivo was obtained as follows. […] Animals were sacrificed at 15 minutes, and the tumors and organs were homogenized extracted and analyzed by atomic absorption for tissue platinum concentrations, as shown in Table 1.
Additionally, histochemical platinum stains were performed on the tumor tissues, as described in Example 7.
Microinhomogeneities of tissue heating represent a major problem in hyperthermia treatment of tumors. […]

Data set [5] can be described thus: Permeability of tumor vascular walls. Particulars: transport by a polymeric carrier.
The test system of another data set is tumor cells. Briefly: Histology of heparin carrier transport into tumor cells. The settings on record: histologically (not shown).

Where only a bound is given, the exact number is not on record here.

With `CNC[C@H](O)[C@@H](O)[C@H](O)[C@H](O)CO.CNC[C@H](O)[C@@H](O)[C@H](O)[C@H](O)CO.O=C([O-])CN(CCN(CC(=O)[O-])CC(=O)O)CCN(CC(=O)[O-])CC(=O)O.[Gd+3]` [Gd-DTPA, gadolinium-diethylenetriaminepentaacetate (Gd-DTPA) dimeglumine], the “Relaxivity at higher clinical radio frequencies” value in data set [1] is reported as “moderate decrease in relaxivity”. In data set [2] (bloodstream), the Blood clearance half-time was 20 min. For the same molecule, in data set [2] (by 30 minutes postcontrast), the “Fading of tumor contrast enhancement” value is “almost complete fading (tumor clearance)”. Moreover, in data set [2] (in vivo), the “Acute hepatic uptake interval” value was 5 to 45 min, the “Postinjection contrast interval / imaging window” value was 10 to 45 min and the Retained fraction entry was “less than 0.5%”. In addition, in data set [2] (intravenous), the “Fraction sequestered in the kidneys” value is over 90%. Besides, in data set [3] (0.1 mmol/kg, by one hour), the “Fading of tumor enhancement” value is recorded as “completely faded”. In data set [3] (0.03 mmol Gd/kg (Gd-DTPA-dextran) or 0.1 mmol/kg (Gd-DTPA), TR=500, TE=40 msec), the “Postcontrast interval at which optimal tumor enhancement began” value was 10 min. The “Biodistribution, share of total body water” value in data set [4] is given as “ca. 35 % of total body water”. Further, the “Retention in tumor interstitium / tumor enhancement of comparator” value in the data set with tumor is 10 to 45 min.

For `N.N.[Cl][Pt][Cl]` [cisplatin, cis-dichlorodiamine platinum], the Aggregated staining result in the data set on VX2 carcinoma cells is given as “absent”.

On to `OCC(O)CO` [glycerol], for which the “Permeability of tumor vascular walls” value in data set [5] was “increases the permeability of the vascular walls in the tumorous region”.

Consider heparin, for which, in the data set with tumor cells, the “Intracellular transport in tumor cells” value is “transported inside tumor cells”.
